Source: paper PMC3684613 (PLoS ONE, 2013)
Like-named read-outs stand apart in the source and are kept apart here.

Assays:
P. falciparum 3D7 [1] = test system: P. falciparum 3D7; design: method as in ChEMBL-NTD; details: ref ChEMBL-NTD, cited from earlier work
P. falciparum 3D7 [2] = assay: DAPI stain fluorescent high content imaging assay, P. falciparum 3D7 (confirmatory screen, Avery); details: Plasmodium falciparum; for inhibition of growth at 5 µM: 3D7, read-out: percent_inh @ 5 uM; for EC50: 3D7, read-out: EC50_nM; for inhibition of growth at 2 µM: 3D7, read-out: percent_inh @ 2 uM
[3] = values follow the order of the source (GNF; GSK; StJude)
[4] = original screening data, source (GSK, GNF, StJude), several values separated by ';' in order of sources

| Structure (SMILES) | inhibition of growth at 5 µM (P. falciparum 3D7 [2]) [%] | EC50 (P. falciparum 3D7 [2]) [nM] | also measured |
| --- | --- | --- | --- |
| COc1ccc(-c2cn3c(C(=O)Nc4ccccc4Cl)c(-c4ccccc4)c4c3n2CCCC4)cc1 [MMV020403] | 80 | – | EC50 (P. falciparum 3D7 [1]; [3]): 792 nM |
| COc1ccc(C(C)=O)cc1N1C(=O)C2C(C1=O)C1(c3ccccc3)C(=O)C2(c2ccccc2)C(c2ccc(C)cc2)=C1c1ccc(C)cc1 (centres unmarked) [MMV007695] | 96 | 179 | EC50 (P. falciparum 3D7 [1]; source GNF (GNF-Pf id)): 2460 nM |
| CCc1ccc(Nc2cc(C)nc3nc(C)nn23)cc1 [MMV007374] | – | 4000 | EC50 (P. falciparum 3D7 [1]; [4]): 574 nM; inhibition of growth at 2 µM (P. falciparum 3D7 [2]): 81% |
| COC(=O)c1ccc(Cl)c2c1C1C=CCC1C(c1cccc3ccccc13)N2 (centres unmarked) [MMV667489] | – | 939 | – |
| COc1ccc(C2Sc3ccccc3N=C3C2=C(O)c2ccccc23)cc1 (centres unmarked) [MMV000563] | 96 | 845 | EC50 (P. falciparum 3D7 [1]; source GNF): 238 nM |
| Oc1c(C(Nc2ccccn2)c2cccc(Oc3ccccc3)c2)ccc2cccnc12 (centres unmarked) [MMV665814] | 97 | 1010 | – |
| CCCCc1c(C)nc2c(OC)cccc2c1O [MMV006820] | – | 4000 | EC50 (P. falciparum 3D7 [1]; [4]): 1690 nM; inhibition of growth at 2 µM (P. falciparum 3D7 [2]): 92% |
| O=C(Nc1ccc(Cl)cc1C(=O)Nc1ccncc1)c1ccc(Cl)cc1Cl [MMV666057] | 94 | – | EC50 (P. falciparum 3D7 [1]; source GSK): 611 nM |
| O=C(CSc1nccn2nc(-c3ccccc3)cc12)Nc1cc(C(F)(F)F)ccc1Cl [MMV396678] | – | 218 | – |
| CCCc1cc(O)c2c3c(c(=O)oc2c1)CN(C)CC3 [MMV665841] | 97 | 146 | EC50 (P. falciparum 3D7 [1]; source GNF (GNF-Pf id)): 554 nM; EC50 (P. falciparum 3D7 [1]; source GSK (TCMDC id)): 873 nM |
| COc1ccc(CCN2C(=O)c3[nH]nc(-c4cc(Cl)c(C)cc4O)c3C2c2ccccc2F)cc1 (centres unmarked) [MMV396717] | – | 916 | – |
| N=c1n(CCN2CCCCC2)c2ccccc2n1CC(O)c1cccc(Br)c1 (centres unmarked) [MMV665902] | 98 | 893 | EC50 (P. falciparum 3D7 [1]; source GSK): 1140 nM |
| O=C(Nc1ccc(N2CCCCC2)c(Cl)c1)c1ccc(Br)o1 [MMV019700] | 96 | 735 | EC50 (P. falciparum 3D7 [1]; [4]): 549 nM |
| Cc1sc(NC(=O)c2ccco2)c(C(c2cccnc2)N2CCC(Cc3ccccc3)CC2)c1C (centres unmarked) [MMV396663] | – | 1020 | – |
| CCCCCCc1cc2cc(-c3csc(C=Cc4ccccc4)n3)c(=O)oc2cc1O [MMV666692] | 92 | 387 | EC50 (P. falciparum 3D7 [1]; [3]): 970 nM |
| COc1ccc(OC)c(C2C3=C(CC(C)(C)CC3=O)N(c3ccc(Cl)c(Cl)c3)C3=C2C(=O)CC(C)(C)C3)c1 [MMV007208] | 90 | 912 | EC50 (P. falciparum 3D7 [1]; source GNF (GNF-Pf ids)): 430 nM |
| CCOc1ccc2nc(C)cc(Nc3ccc(Br)cc3)c2c1 [MMV006522] | – | 480 | EC50 (P. falciparum 3D7 [1]; [3]): 114 nM; inhibition of growth at 2 µM (P. falciparum 3D7 [2]): 96% |
| Oc1ccc(Br)cc1CN1CCN(Cc2ccc(Cl)cc2)CC1 [MMV665809] | 97 | – | EC50 (P. falciparum 3D7 [1]; [3]): 1480 nM |
| COc1ccc(C=C2SC(Nc3ccccc3)=NC2=O)cc1 [MMV665836] | 71 | 551 | – |
| CCOc1cc2c(cc1OCC)C(c1cc(OC)c(O)cc1Cl)NCC2 (centres unmarked) [MMV008956] | 98 | 370 | EC50 (P. falciparum 3D7 [1]; source GNF (GNF-Pf id)): 362 nM; EC50 (P. falciparum 3D7 [1]; source GSK (TCMDC id)): 748 nM |
| CCOc1cc(CNC(C)C(O)c2ccccc2)cc(Cl)c1OCC (centres unmarked) [MMV396633] | – | 1240 | – |
| Nc1ccn([C@@H]2O[C@H](CO)[C@@H](O)[C@H]2O)c(=O)n1 [MMV638723] | – | 385 | – |
| COc1cccc(C2(C)Nc3ccccc3-c3nc4ccccc4n32)c1 (centres unmarked) [MMV396719] | – | 1150 | – |
| Brc1ccc(Nc2nc3ccccc3nc2Nc2ccc(Br)cc2)cc1 [MMV007224] | 98 | 1060 | – |
| CN1CCN(c2nc(Nc3ccc(O)cc3)nc3ccccc23)CC1 [MMV000986] | – | 1430 | – |

| Structure (SMILES) | inhibition of growth at 5 µM (P. falciparum 3D7 [2]) [%] | EC50 (P. falciparum 3D7 [2]) [nM] | also measured |
| --- | --- | --- | --- |
| Oc1ccccc1CN1CCN(C(c2ccccc2)c2ccccc2)CC1 [MMV011795] | 97 | 611 | – |
| CCOC(=O)c1c(C)n(-c2ccccc2)c2ccc(OC(=O)c3cc(OC)c(OC)c(OC)c3)cc12 [MMV396664] | – | 615 | – |
| O=c1nc(C=Cc2ccc(Cl)cc2)oc2ccccc12 [MMV007977] | 76 | 995 | – |
| O=C(NC1CCN(Cc2ccccc2)CC1)c1cc2nc(-c3ccc(Cl)s3)cc(C(F)(F)F)n2n1 [MMV396635] | – | 959 | – |
| COc1cc(C(=O)Nc2nc3c(cc4c5c(cccc53)CC4)s2)cc(OC)c1OC [MMV396665] | – | 898 | – |
| N#Cc1nc(Cc2cccc3ccccc23)oc1N1CCN(C(c2ccccc2)c2ccccc2)CC1 [MMV396726] | – | 1160 | – |
| COc1ccc(Nc2nc(NCc3ccccc3)c3ccccc3n2)cc1 [MMV000963] | – | 589 | – |
| COc1ccc(-c2c(C)nn3c(N)c(C#N)cnc23)cc1OC [MMV396797] | – | 477 | – |
| CCOc1ccc(N2C(N)=NC(N)=NC2(C)C)cc1 [MMV667486] | – | – | inhibition of growth at 2 µM (P. falciparum 3D7 [2]): 92% |
| O=C(Nc1cccc(C2=NCCN2)c1)Nc1cccc(C2=NCCN2)c1 [MMV665810] | 83 | 1010 | – |
| Nc1nc(Nc2cccc(F)c2)nc2ccccc12 [MMV080034] | – | 1000 | – |
| CCOc1ccccc1CN1CCc2nc3cc(C(C)(C)C)nn3c(O)c2C1 [MMV396595] | – | 1010 | – |
| CCOC(=O)c1cnc2ccc(OC)cc2c1Nc1ccc(N2CCN(C)CC2)cc1 [MMV000704] | – | 1100 | – |
| COc1ccccc1N1C(=N)SC(=Cc2ccc(OCc3ccccc3F)cc2)C1=O [MMV007199] | 95 | 478 | – |
| CC(C)CNC(=O)c1c(N)n(CCc2ccccc2F)c2nc3ccccc3nc12 [MMV396744] | – | 832 | – |
| OC(CNCC1CCCO1)Cn1c2ccc(Cl)cc2c2cc(Cl)ccc21 (centres unmarked) [MMV396736] | – | 1060 | – |
| COc1ccc2nc(C)cc(Nc3ccc(Cl)cc3)c2c1 [MMV007875] | – | 2000 | inhibition of growth at 2 µM (P. falciparum 3D7 [2]): 95% |
| N=c1n(CCN2CCCCC2)c2ccccc2n1CC(=O)c1ccc(Cl)c(Cl)c1 [MMV396723] | – | 1240 | – |
| CCN(CC)CCn1c(=N)n(CC(O)c2ccc(Cl)c(Cl)c2)c2ccccc21 (centres unmarked) [MMV000248] | 97 | 718 | – |
| Oc1ccc(-c2nc(-c3ccc4oc5ccc(-c6[nH]c(-c7ccc(O)cc7)nc6-c6ccccc6)cc5c4c3)c(-c3ccccc3)[nH]2)cc1 [MMV000753] | 98 | 326 | – |
| COc1ccc(-c2nc(N3CCN(C(=O)C4CCCCC4)CC3)c3c4c(sc3n2)CCCC4)cc1 [MMV396594] | – | 1060 | – |
| C[n+]1c2ccccc2nc2ccc(NCCO)cc21 [MMV396693] | – | 296 | – |
| COc1cc2cc(C(=O)Nc3ccccc3)c(N)nc2cc1OC [MMV006767] | 99 | – | – |
| COc1cccc(Cn2c(Oc3ccccc3)nc3c2c(=O)n(C)c(=O)n3C)c1 [MMV396705] | – | 1390 | – |
| Cc1cc(C)cc(Nc2cc(C)nc3nc(C(F)(F)F)nn23)c1 [MMV011259] | – | 85.7 | – |

| Structure (SMILES) | inhibition of growth at 5 µM (P. falciparum 3D7 [2]) [%] | EC50 (P. falciparum 3D7 [2]) [nM] | also measured |
| --- | --- | --- | --- |
| CCN(CC)CCNc1ncnc2c1[nH]c1ccc(Cl)cc12 [MMV396703] | – | 406 | – |
| CCn1nc(-c2ccc(C(=O)OC)cc2)nc2c(=O)n(C)c(=O)nc1-2 [MMV306025] | – | 693 | – |
| Cc1cc(NC(=O)c2cccc(C(F)(F)F)c2)n(-c2nc(-c3ccc4c(c3)OCO4)cs2)n1 [MMV396681] | – | 959 | – |
| CC1(c2ccccc2)Nc2ccccc2-c2nc3ccccc3n21 (centres unmarked) [MMV396715] | – | 1730 | – |
| O=C(NCC(c1ccsc1)N1CCCCCC1)c1ccc(C(F)(F)F)cc1 (centres unmarked) [MMV396672] | – | 433 | – |
| Cc1ccc(Nc2nc(N)c3ccccc3n2)cc1Cl [MMV011522] | – | 4000 | inhibition of growth at 2 µM (P. falciparum 3D7 [2]): 96% |
| Cc1cc(N2CCCC2)nc(Nc2ccc(NC(=O)CCc3ccccc3)cc2)n1 [MMV396669] | – | 1070 | – |
| CCOc1ccc(C2N(C)c3ccccc3N2C)cc1 [MMV075490] | 72 | 941 | – |
| CN1CCN(c2ncnc3c2[nH]c2ccc(Cl)cc23)CC1 [MMV396704] | – | 1190 | – |
| COc1ccc(-c2cc3c(SCC(=O)Nc4cc(C(F)(F)F)ccc4Cl)nccn3n2)cc1 [MMV396679] | – | 89.9 | – |
| COc1ccc(C=C2SC(Nc3ccc(F)cc3)=NC2=O)c(OC)c1 [MMV084434] | 92 | 591 | – |
| CCOc1c(Cl)cc(CNCC(O)c2ccccc2)cc1OC (centres unmarked) [MMV396632] | – | 1050 | – |
| Cc1sc(NC(=O)c2ccccc2)c(C(c2cccs2)N2CCN(c3ccccc3)CC2)c1C (centres unmarked) [MMV396652] | – | 1180 | – |
| Cc1cccc(-n2ncc3c(=O)[nH]c(-n4nc(C)cc4NC(=O)c4cc5ccccc5o4)nc32)c1 [MMV403679] | – | 929 | – |
| CCOc1cc2c(cc1OCC)C(c1cc(Cl)ccc1O)NCC2 (centres unmarked) [MMV000478] | 98 | 746 | – |
| O=C1C2=C(Nc3ccccc3SC2c2ccccc2)c2ccccc21 (centres unmarked) [MMV645672] | – | 890 | – |
| Cc1ccc(-c2cc3c(SCC(=O)Nc4cc(C(F)(F)F)ccc4Cl)nccn3n2)cc1 [MMV396680] | – | 92.8 | – |
| CN(N=O)C1=C(NC2CCCCC2)C(=O)c2ccccc2C1=O [MMV667492] | – | 1190 | – |
| COc1ccc(C2c3ccc4ccccc4c3Oc3ncn(CCCn4ccnc4)c(=N)c32)cc1OC (centres unmarked) [MMV667490] | – | 1790 | – |
| COc1ccc2nc(C)cc(Nc3ccccc3O)c2c1 [MMV274073] | – | 686 | – |
| COc1ccc(C2c3ccc4ccccc4c3Oc3ncn(CCCN(C)C)c(=N)c32)cc1 (centres unmarked) [MMV667491] | – | 1230 | – |
| CN(C)c1ccc(N2C(N)=NC(N)=NC2(C)C)cc1 [MMV667487] | – | – | inhibition of growth at 2 µM (P. falciparum 3D7 [2]): 95% |
| O=C(NNc1cc(N2CCCC2)nc(N2CCCC2)n1)c1ccccc1 [MMV396770] | – | 1330 | – |
| COc1ccc2c(c1)C1(Nc3ccccc3-c3nc4ccccc4n31)C(=O)N2 (centres unmarked) [MMV396749] | – | 928 | – |
| CC(C)(C)CC(C)(C)NCC(O)COc1ccc(Cl)cc1Cl (centres unmarked) [MMV396794] | – | 1160 | – |
